Experimental findings from patent US20090148546A1, “Methods and compounds fo rthe treatment of obesity and obesity-related disorders” (priority 2005, published 2009) are described below.

This assay concerns 3T3-L1 cells. Description: Adipogenesis: differentiation of 3T3-L1 cells into adipocytes, oil red-O staining. The conditions noted are these: 10 days. The format is cell-based, mouse. The text has this: It is reported here for the first time that capsaicin is a potent inhibitor of adipogenesis. The accepted model for the process of adipogenesis is the differentiation of mouse-derived 3T3-L1 fibroblasts into adipocytes after treatment with potent inducers such as dexamethasone, isobutyrylmethylxanthine, and insulin. In this model, the adipocytes are identified by the accumulation of lipid droplets in the cytoplasm. We tested the effect of the presence or absence of capsaicin on this process.
NIH 3T3-L1 cells were obtained from American Type Culture Collection (Manassas, Va.). NIH 3T3-L1 cells are a mouse-derived fibroblast cell line that convert into adipocytes under certain conditions. This cell system is well known in the art and is a standard model for the study of adipocyte metabolism. The cells were cultured using well known methods in complete medium (Dulbecco Modified Eagle's Medium (DMEM) (4500 mg glucose/liter) containing 10% fetal bovine serum (FBS)). When the cells were 75% confluent, they were subcultured into multi-well culture plates and allowed to grow to confluency. The differentiation of the cells into adipocytes was initiated by switching to inducing medium (complete medium containing 10 uM dexamethasone, 0.5 mM isobutyrylmethylxanthine, and 10 ug/ml insulin). 1 ug/ml and 0.5 ug/ml doses of capsaicin were added to a number of the culture wells. After 48 hours, the inducing medium was replaced with maintenance medium 1 (complete medium containing insulin (10 ug/ml) with or without capsaicin). After 24 hours, the cells were switched to maintenance medium 2 (complete medium with or without capsaicin). The cultures were followed for up to 10 days for differentiation into adipocytes. The culture medium was replaced every 2 days with a medium of similar composition. The cells were photographed every 2 days to follow their progress. On day 10, the cells were stained with oil red-O (to stain for intracellular lipid) and photographed.

Regarding `COc1cc(CNC(=O)CCCC/C=C/C(C)C)ccc1O` [capsaicin, trans-8-methyl-N-vanillyl-6-nonenamide], the differentiation into adipocytes result (0.5 ug/ml and 1 ug/ml) is “did not become adipocytes”. Moreover, the “lipid accumulation (oil red-O stain)” value is recorded as “significant decrease in lipid accumulation” (0.5 ug/ml, FIG. 2) and “significant decrease in lipid accumulation” (1 ug/ml, FIG. 3).
